{"source": "paper PMC10808720", "about": "(Frontiers in Pharmacology, 2024)", "key": {"[1]": {"system": "A549 cells", "test": "Cytotoxicity assay (AlamarBlue)", "type": "cell-based, Human", "conditions": "48 h", "procedure": "The cytotoxicity of the molecules was analyzed using the commercial kit AlamarBlue® (Invitrogen, Ref. DAL1025) according to the manufacturer’s instructions. Briefly, A549 cells were seeded at a density of 5 × 10^3 cells per well in 96-well plates, and decreasing serial dilutions of each molecule were diluted in 100 μL of DMEM starting at 200 μM. The cells were then incubated at 37°C for 48 h following the manufacturer’s protocol. The cytotoxic concentration 50% (CC50) value was obtained using the statistical software GraphPad Prism 6. The assay was performed in duplicate."}, "[2]": {"system": "wild-type HAdV5", "test": "HAdV yield reduction (burst) assay, TCID50 end-point dilution", "type": "cell-based, human adenovirus (HAdV5)", "conditions": "10-fold IC50 concentration; TCID50/ml compound vs. DMSO; A549 cells; 48 h; MOI 100 vp/cell", "procedure": "A549 cells (1.5 × 10^5 cells/well in a 24-well plate) were incubated 24 h in 500 μL of complete DMEM and they were infected with wild-type HAdV5 (MOI 100 vp/cell) when more than 90% of confluency was observed. Infected cells were incubated for 48 h at 37°C in 500 μL of either complete DMEM containing 10-fold IC50 concentration of compounds obtained in the plaque assay or the same volume of DMSO (positive control). After 48 h, the cells were harvested and subjected to three rounds of freeze/thaw. Serial dilutions of the clarified lysates were titrated against A549 cells (3 × 10^4 cells/well in a 96-well plate) and TCID50 values were calculated using an end-point dilution method ([Reed and Muench, 1938])."}, "[3]": {"system": "p53/MDM2 complex", "sequence (P04637 whole entry)": "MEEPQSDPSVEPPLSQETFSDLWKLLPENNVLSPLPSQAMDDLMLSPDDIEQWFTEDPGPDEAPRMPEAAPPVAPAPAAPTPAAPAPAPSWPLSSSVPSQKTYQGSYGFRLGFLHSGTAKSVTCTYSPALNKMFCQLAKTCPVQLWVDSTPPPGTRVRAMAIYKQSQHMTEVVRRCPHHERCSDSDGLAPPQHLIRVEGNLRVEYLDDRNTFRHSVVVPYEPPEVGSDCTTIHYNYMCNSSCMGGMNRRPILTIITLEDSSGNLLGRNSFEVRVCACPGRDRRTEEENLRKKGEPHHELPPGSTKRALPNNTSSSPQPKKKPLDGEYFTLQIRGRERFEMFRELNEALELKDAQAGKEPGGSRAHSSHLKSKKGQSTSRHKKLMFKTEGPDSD", "sequence (Q00987 whole entry, further chain)": "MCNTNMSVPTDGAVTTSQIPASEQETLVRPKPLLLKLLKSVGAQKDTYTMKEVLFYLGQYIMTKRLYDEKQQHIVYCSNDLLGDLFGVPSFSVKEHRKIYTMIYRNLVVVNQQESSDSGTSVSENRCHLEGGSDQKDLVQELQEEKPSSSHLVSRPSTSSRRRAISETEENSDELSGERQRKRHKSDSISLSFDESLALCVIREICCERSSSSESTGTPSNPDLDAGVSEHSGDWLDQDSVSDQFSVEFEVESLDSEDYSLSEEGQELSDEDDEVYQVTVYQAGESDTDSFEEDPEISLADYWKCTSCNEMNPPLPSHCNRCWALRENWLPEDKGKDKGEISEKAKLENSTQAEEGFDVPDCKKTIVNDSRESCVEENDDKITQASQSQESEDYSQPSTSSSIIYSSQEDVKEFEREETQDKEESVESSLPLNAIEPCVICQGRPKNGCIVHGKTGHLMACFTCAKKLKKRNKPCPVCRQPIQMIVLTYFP", "type": "cell-based, Human", "conditions": "HAdV5-infected A549 cells; 10-fold IC50; 24 h", "procedure": "A549 cells were seeded at a density of 1.5 × 10^5 cells per well in a 24-well plate at a high density and 3.75 × 10^4 cells per well at a low density. […] The culture medium was then aspirated and washed with 1X with cold PBS. Later, 200 μL RIPA Lysis Buffer (1% v/v NP-40, 20 mM Tris-HCL pH 7.4, 5 mM Sodium Pyrophosphate, 5 mM EDTA) with freshly added proteinase inhibitor cocktail (Thermo Fisher Scientific) was added to each well and swirled to distribute it evenly. Cells were then scraped and collected to incubate them for 30 min on ice and finally centrifuged at 13,000 × g for 5 min at 4°C. […] This assay was performed in triplicate."}, "[4]": {"system": "HAdV5-GFP", "test": "Initial rapid screening, HAdV5-mediated GFP expression in A549 cells", "type": "cell-based, human adenovirus (HAdV5)", "conditions": "50 µM, 2,000 vp/cell, 48 h", "procedure": "An initial rapid screening was performed using human A549 cells (3 × 10^5 cells/well) infected with HAdV5-GFP with a multiplicity of infection (MOI) of 2,000 vp/cell in the presence of 50 μM of the candidate antiviral compounds. Briefly, a standard infection curve was generated in parallel by infecting cells in the absence of compounds using serial two-fold dilutions of virus. Cells, virus and compounds were incubated for 48 h at 37°C and 5% CO2. Infection, as measured by HAdV5-mediated GFP expression, was analyzed using a Typhoon 9410 imager (GE Healthcare Life Sciences), and quantified with ImageQuantTL (GE Healthcare Life Sciences). All reactions were done in triplicate."}, "[5]": {"system": "wild-type HAdV5", "test": "Nuclear-associated HAdV genomes (qPCR after nuclear isolation)", "type": "cell-based, human adenovirus (HAdV5)", "conditions": "10-fold IC50; 45 min after synchronized infection; A549", "procedure": "Nuclear delivery of HAdV genomes was assessed using qPCR following nuclear isolation from infected cells. Briefly, 1 × 10^6 A549 cells in 6-well plates were infected either with wild-type HAdV5 at an MOI of 2,000 vp/cell in the presence of a 10-fold IC50 concentration of the compounds obtained in the plaque assay or the same volume of DMSO as the positive control. Forty-five minutes after infection, the A549 cells were trypsinized, collected, and washed twice with PBS. The cell pellet was resuspended in 500 μL of 1×hypotonic buffer (20 mM Tris-HCl pH 7.4, 10 mM NaCl, 3 mM MgCl2) and incubated for 15 min at 4°C. Then, 25 μL of NP-40 was added and the samples were vortexed. The homogenates were centrifuged for 10 min at 835 g at 4°C. Following the removal of the cytoplasmic fraction (supernatant), HAdV DNA was isolated from the nuclear (pellet) and cytoplasmic fractions using the E.Z.N.A.® Tissue DNA Kit (Omega Bio-tek, Norcross, GA)."}, "[6]": {"system": "HCMV", "test": "Impact on HCMV replication (qPCR of HCMV DNA in HFF)", "type": "cell-based, human cytomegalovirus", "conditions": "2-fold IC50 (HAdV plaque assay), 72 h", "procedure": "To test the anti-HCMV activity of these rotenolone-related compounds, human foreskin fibroblasts (HFF; ATCC, Manassas, VA) were seeded in a 24-well plate (8.3 × 10^4 cells/well), infected with HCMV (MOI 0.05 vp/cell), and incubated in complete DMEM in the presence of either 2-fold IC50 concentration of each compound obtained in the plaque assay against HAdV or the same volume of DMSO (positive control) in duplicate. The cells were incubated for 72 h at 37°C and 5% CO2 and HCMV DNA was purified from the cell lysate using E.Z.N.A Tissue DNA Kit (Omega Biotek, Norcross, GA, USA) following the manufacturer’s instructions. The qPCR primers, conditions, and protocols were the same as previously reported ([Mazzotta et al., 2020b])."}, "[7]": {"system": "HAdV5-GFP", "test": "microbe, parasite or virus in culture", "type": "cell-based, human adenovirus (HAdV5)", "conditions": "HAdV5-GFP; 293β5 cells; MOI 0.06 vp/cell; 7 days; read-out: IC50 plaque assay", "procedure": "Compounds were tested using low MOI infections (0.06 vp/cell), initially at concentrations of 10 μM and subsequently in a dose-response assay ranging from 10 μM to 2.44 nM in a plaque assay. Briefly, 293β5 cells were seeded in 6-well plates at a density of 1 × 10^6 cells per well in duplicate for each condition. When the cells reached 80%–90% confluency, they were infected with HAdV5-GFP and rocked for 2 h at 37°C. After the incubation, the inoculum was removed and the cells were washed once with PBS. Cells were then carefully overlaid with equal parts of 4 mL/well 1.6% ([…]) Difco Agar Noble (Becton, Dickinson & Co., Sparks, MD, USA) and 2× Eagle’s Minimum Essential Medium (EMEM; BioWhittaker) supplemented with 2×penicillin/streptomycin, 2× L-glutamine, and 10% FBS. The mixture also contained the compounds in the concentration ranges described above. Following incubation for 7 days at 37°C, plates were scanned with a Typhoon FLA 9000 imager (GE Healthcare Life Sciences) and the formed plaques were quantified with ImageJ ([Schneider et al., 2012]). Plaque counting was performed to calculate the 50% inhibitory concentration (IC50) of each compound using the statistical software GraphPad Prism 6."}, "[8]": {"system": "HAdV5", "test": "HAdV-mediated endosome disruption (α-sarcin co-delivery, HPG incorporation)", "type": "cell-based, human adenovirus (HAdV5)", "procedure": "A549 cells (2 × 10^4 cells/well) were incubated in DMEM without cysteine or methionine supplemented with 10% dialyzed FBS [DMEM(−)] in black 96-well plates for 1 h prior to infection. Three-fold serial dilutions (0.45 ng–1,000 ng) of HAdV5, or AdV2ts1 were preincubated with cells in the presence of 10-fold IC50 concentration of the compounds obtained in the plaque assay or the same volume of DMSO for positive control for 1 h. The medium was then removed and replaced with 50 μL DMEM(−) containing 0.1 mg/ml α-sarcin (Santa Cruz Biotechnology, Dallas, Texas, USA) and drug mixtures. After 1 h at 37°C, the Click-iT L-homopropargylglycine (HPG) Alexa Fluor 488 Protein Synthesis Assay Kits (Invitrogen) was used to analyse protein synthesis according to the manufacturer’s instructions. The incorporation of the amino acid analogue of methionine HPG containing Alexa Fluor 488 azide was measured using a Typhoon 9410 imager (GE Healthcare Life Sciences) and calculated by subtracting the background level of the control well containing HPG and α-sarcin but not the virus (100% incorporation)."}}}
{"substance": "(2R,6S,6aR,12aS)-8,9-dimethoxy-2-(prop-1-en-2-yl)-1,2,6,6a,12,12a-hexahydrochromeno[3,4-b]furo[2,3-h]chromen-6-ol [Rotenolone]", "values": [{"measurement": "CC50", "setting": "[1]", "result": "17.1 ± 0.4", "unit": "µM"}, {"measurement": "Virus Yield Fold-reduction", "setting": "[2]", "result": "1.3E+04 ± 4582.5", "unit": "fold"}, {"measurement": "concentration of p53/MDM2 complexes, high vs low cell density", "setting": "[3]", "result": "significant difference"}, {"measurement": "inhibition of HAdV5-GFP transgene expression", "setting": "[4]", "result": 100, "unit": "%"}, {"measurement": "accessibility of HAdV genomes to the nucleus", "setting": "[5]", "result": "did not block"}, {"measurement": "inhibition of HCMV replication", "setting": "[6]", "result": 85.2, "unit": "%"}, {"measurement": "IC50", "setting": "[7]", "result": 30, "unit": "nM"}, {"measurement": "HPG incorporation", "setting": "[8]; compared with a control without α-sarcin, 10-fold IC50, independent of virus concentration", "result": "approximately 30%"}, {"measurement": "attenuation of HAdV-mediated endosomolysis", "setting": "[8]; α-sarcin assay", "result": "did not attenuate"}]}
